Usually pKd stands for the negative decadic logarithm of the Kd, by convention in mol/L. A lower pKd goes with a high Kd. A word on the pIC50: it is the negative decadic logarithm of the IC50, by convention in mol/L.

These results are taken from patent US8759333B2, “Di-azetidinyl diamide as monoacylglycerol lipase inhibitors” (Janssen Pharmaceutica, NV, priority 2010, dated 2014).

The target in one assay is T1, mutant MGL (Homo sapiens, UniProt Q99685, L169S/L176S).
T1 construct: purified mutant MGL (mut-MGLL 11-313 L179S L186S)
T1 sequence (Q99685 1-303 L169S/L176S): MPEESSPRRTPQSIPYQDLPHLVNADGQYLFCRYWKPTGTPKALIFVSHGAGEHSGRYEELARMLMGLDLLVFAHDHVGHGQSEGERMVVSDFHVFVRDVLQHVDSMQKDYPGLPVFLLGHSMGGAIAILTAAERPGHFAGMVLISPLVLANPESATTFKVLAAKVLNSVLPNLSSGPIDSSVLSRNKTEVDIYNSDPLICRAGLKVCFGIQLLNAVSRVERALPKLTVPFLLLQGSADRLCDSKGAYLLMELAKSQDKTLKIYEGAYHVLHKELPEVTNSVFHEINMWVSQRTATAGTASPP
The assay is described as follows: MGL ThermoFluor Assay - Mutant. Particulars: 0.07 mg/ml mutant MGL, 100 μM ANS, pH 7.0. It counts as binding. How it is done: The ThermoFluor (TF) assay is a 384-well plate-based binding assay that measures thermal stability of proteins^1,2. The experiments were carried out using instruments available from Johnson & Johnson Pharmaceutical Research & Development, LLC. TF dye used in all experiments was 1,8-ANS (Invitrogen: A-47). Final TF assay conditions used for MGL studies were 0.07 mg/ml of mutant MGL, 100 μM ANS, 200 mM NaCl, 0.001% Tween-20 in 50 mM PIPES (pH=7.0).
Screening compound plates contained 100% DMSO compound solutions at a single concentration. […] Columns 12 and 24 were used as DMSO reference and contained no compound. […] Following compound dispension, protein and dye solutions were added to achieve the final assay volume of 3 μL.
Bar-coded assay plates were robotically loaded onto a thermostatically controlled PCR-type thermal block and then heated from 40 to 90° C. degrees at a ramp-rate of 1° C./min for all experiments. Fluorescence was measured by continuous illumination with UV light (Hamamatsu LC6), supplied via fiber optics and filtered through a band-pass filter (380-400 nm; >60D cutoff). Fluorescence emission of the entire 384-well plate was detected by measuring light intensity using a CCD camera (Sensys, Roper Scientific) filtered to detect 500±25 nm, resulting in simultaneous and independent readings of all 384 wells. A single image with 20-sec exposure time was collected at each temperature, and the sum of the pixel intensity in a given area of the assay plate was recorded vs temperature and fit to standard equations to yield the Tm^1. • 1.
The Kd values for certain compounds of Formula (I) were determined from a fit of the equation to the concentration-response plot of the fractional activity as a function of […]. For some experiments, quantitative NMR spectroscopy (qNMR) was used to measure concentration of the initial 100% DMSO compound solutions and, using the same fitting method, qKd values were determined.
Background: In DSF a fluorescence change marks the thermal transition of the protein.

The target of assay [1] is T2, mutant MGL (mut-MGLL 11-313 L179S L186S) (Homo sapiens, UniProt Q99685, L169S/L176S).
T2 construct: purified mutant MGL (mut-MGLL 11-313 L179S L186S)
T2 sequence (Q99685 1-303 L169S/L176S): T1 sequence (Q99685 1-303 L169S/L176S)
As to the kind of experiment: MGL Enzyme Activity Assay, purified mutant MGL, 4MU-B substrate. The assay is classed as biochemical. As to conditions: mutant MGL 5 nM, 4MU-B 10 μM, 37° C.; read-out: MGL mutant inh IC50. The procedure:
All rate-based assays were performed in black 384-well polypropylene PCR microplates (Abgene) in a total volume of 30 μL. Substrate 4-methylumbelliferyl butyrate (4MU-B; Sigma) and either purified mutant MGL (mut-MGLL 11-313 L179S L186S) or purified wild type MGL (wt-MGLL 6H-11-313) were diluted separately into 20 mM PIPES buffer (pH=7.0), containing 150 mM NaCl and 0.001% Tween 20. Compounds of Formula (I), including Formulas I(a), I(b), and I(c), were pre-dispensed (50 nL) into the assay plate using a Cartesian Hummingbird prior to adding 4MU-B (25 μL of 1.2× solution to a final concentration of 10 μM) followed by enzyme (5 μL of a 6× solution to a final concentration of 5 nM) to initiate the reaction. Final compound concentrations ranged from 17 to 0.0003 μM. The fluorescence change due to 4MU-B cleavage was monitored with excitation and emission wavelengths of 335 and 440 nm, respectively, and a bandwidth of 10 nm (Safire^2, Tecan) at 37° C. for 5 min.
The IC50 values for the following compounds were determined using Microsoft Office Excel from a fit of the equation to the concentration-response plot of the fractional activity as a function of inhibitor concentration.

In the next assay the target is T3, MGL (Rattus norvegicus, UniProt Q8R431).
T3 construct: one g rat brain was homogenized using a Polytron homogenizer; from tissue; host or cells: rat brain homogenate
T3 sequence (Q8R431 1-303): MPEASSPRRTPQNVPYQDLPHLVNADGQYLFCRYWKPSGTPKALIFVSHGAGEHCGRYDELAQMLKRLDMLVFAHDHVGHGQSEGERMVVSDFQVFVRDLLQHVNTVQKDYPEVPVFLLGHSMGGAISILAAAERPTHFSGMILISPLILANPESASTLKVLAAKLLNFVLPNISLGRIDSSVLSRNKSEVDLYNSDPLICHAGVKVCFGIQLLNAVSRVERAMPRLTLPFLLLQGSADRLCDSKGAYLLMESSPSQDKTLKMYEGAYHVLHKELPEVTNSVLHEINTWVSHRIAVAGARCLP
The assay is described as follows: 2-AG Accumulation Assay in rat brain homogenate. It counts as biochemical. Particulars: percent of vehicle; for activity at 1 µM: compound @1 µM, read-out: Rat Brain 2AG % VehCntrl (%) @1 µM.

pIC50, pKd: −log10 of the molar value.

As for `O=C(NC1CN(C2CN(C(=O)c3ccc4c(ccn4S(=O)(=O)c4ccccc4)c3)C2)C1)c1nccs1` [Cpd 3, N-(1′-{[1-(Phenylsulfonyl)-1H-indol-5-yl]carbonyl}-1,3′-biazetidin-3-yl)-1,3-thiazole-2-carboxamide], on mutant MGL, the pKd was 7.48. In assay [1], the negative logarithm of the IC50 (pIC50) is 8.22. For the same molecule, the activity at 1 µM at MGL was determined as 271%.
`CS(=O)(=O)c1cccc(-c2ccc(C(=O)N3CC(N4CC(N5Cc6ccccc6C5=O)C4)C3)cc2)c1` [Cpd 80, 2-(1′-{[3′-(Methylsulfonyl)biphenyl-4-yl]carbonyl}-1,3′-biazetidin-3-yl)-2,3-dihydro-1H-isoindol-1-one] gave a pKd at mutant MGL of 6.72. Also, in assay [1], the pIC50 is 7.72. The activity at 1 µM on MGL came to 166%.
Take `O=C(c1ccc2nc(-c3ccccc3)oc2c1)N1CC(N2CC(N3Cc4ccccc4C3=O)C2)C1` [Cpd 84, 2-{1′-[(2-Phenyl-1,3-benzoxazol-6-yl)carbonyl]-1,3′-biazetidin-3-yl}-2,3-dihydro-1H-isoindol-1-one]: the negative logarithm of the Kd (pKd) at mutant MGL is 7.22. Moreover, the pIC50 in assay [1] is 7.51. Moreover, the activity at 1 µM at MGL stood at 152%. For the same molecule, on MGL (compound @10 µM, read-out: Rat Brain 2AG % VehCntrl (%) @10 µM), the activity at 10 µM was 435%.
On mutant MGL, `O=C(NC1CN(C2CN(C(=O)c3ccc(-c4ccccc4)cc3)C2)C1)c1ccccc1` [Cpd 39, N-[1′-(Biphenyl-4-ylcarbonyl)-1,3′-biazetidin-3-yl]benzamide] showed a negative-log Kd (pKd) of 6.65. For the same molecule, the pIC50 in assay [1] is 6.22.
`O=C(NC1CN(C2CN(C(=O)c3ccc4nc(Br)sc4c3)C2)C1)c1cscn1` [Cpd 46, N-{1′-[(2-Bromo-1,3-benzothiazol-6-yl)carbonyl]-1,3′-biazetidin-3-yl}-1,3-thiazole-4-carboxamide] showed a pKd on mutant MGL of 5.47. Besides, the pIC50 in assay [1] is 5.43.
On the same counts, the results for `O=C(c1ccc(-c2ccccc2)cc1)N1CC(N2CC(N3Cc4ccccc4C3=O)C2)C1` [Cpd 92, 2-[1′-(Biphenyl-4-ylcarbonyl)-1,3′-biazetidin-3-yl]-2,3-dihydro-1H-isoindol-1-one] are 7.00 and 6.62.
Consider `O=C(NC1CN(C2CN(C(=O)c3ccc(Br)cc3)C2)C1)c1nccs1` [Cpd 43, N-{1′-[(4-Bromophenyl)carbonyl]-1,3′-biazetidin-3-yl}-1,3-thiazole-2-carboxamide], for which, on mutant MGL, the pKd is 5.48. Moreover, the pIC50 in assay [1] was 5.77.
The like results for `O=C(NC1CN(C2CN(C(=O)c3ccc4ccn(-c5ccccc5)c4c3)C2)C1)c1nccs1` [Cpd 27, N-{1′-[(1-Phenyl-1H-indol-6-yl)carbonyl]-1,3′-biazetidin-3-yl}-1,3-thiazole-2-carboxamide] were, in that order, 6.35 and 6.78.
`O=C(NC1CN(C2CN(C(=O)c3ccc(Cc4ccccc4)cc3)C2)C1)c1ccccc1` [Cpd 31, N-{1′-[(4-Benzylphenyl)carbonyl]-1,3′-biazetidin-3-yl}benzamide] showed a pKd on mutant MGL of 6.81. In assay [1], the negative-log IC50 (pIC50) is 6.57.
The like results for `O=C(c1sc2cc(Br)ccc2c1Cl)N1CC(N2CC(N3Cc4ccccc4C3=O)C2)C1` [Cpd 75, 2-{1′-[(6-Bromo-3-chloro-1-benzothiophen-2-yl)carbonyl]-1,3′-biazetidin-3-yl}-2,3-dihydro-1H-isoindol-1-one] were, in that order, 8.15 and 7.82.
The like results for `O=C(c1ccc(Cc2ccccc2)cc1)N1CC(N2CC(N3Cc4ccccc4C3=O)C2)C1` [Cpd 94, 2-{1′-[(4-Benzylphenyl)carbonyl]-1,3′-biazetidin-3-yl}-2,3-dihydro-1H-isoindol-1-one] were, in that order, 7.04 and 6.39.
On the same counts, the results for `O=C(NC1CN(C2CN(C(=O)c3ccc(Oc4ccccc4)cc3)C2)C1)c1ccccc1` [Cpd 45, N-{1′-[(4-Phenoxyphenyl)carbonyl]-1,3′-biazetidin-3-yl}benzamide] are 6.08 and 5.56.
